Results: patent US20100040738A1, “Extension Of Beverage Shelf-Stability By Solute-Ligand Complexes” (PepsiCo., Inc., priority 2008, published 2010)
Converted amounts (≈) assume the structure as drawn. Like-named read-outs stand apart in the source and are kept apart here.

Experiments:
spoilage organisms = assay: MIC of antimicrobial candidates (Table II); assay type: cell-based
Description: “Minimal inhibitory concentration” (MIC) is another term for which no standard time period is included in the definition.
(§1) In each of the examples below, the period of incubation is 16 weeks which relates to the standard shelf life period for beverages distributed at ambient temperature. If a chemical simply retards growth for a period less than 16 weeks, then it will not fulfill the need of the manufacturer. The concentration of the chemical employed to prohibit spoilage is often reported as the Minimum Inhibitory Concentration (MIC). The MIC value of a candidate compound for use as a beverage preservative is the concentration of the candidate which permits the beverage to remain free of spoilage for a period of 16 weeks.

[1] = Solubility limit in model beverage system, non-complex form or cyclodextrin complex; assay type: physicochemical; details: for solubility limit / limit of solubility in beverage: non-complex form; for limit of solubility in beverage: across test beverages
Description: The base composition of the model beverage per liter is:
A model high acid beverage system (pH <4.6) of 10% juice content was prepared to test efficacy of methoxycinnamate either in the non-complex form or as the alpha (α) or beta (β) cyclodextrin-included (complex) form. The base composition of the model beverage per liter is:
A model low acid beverage system (pH ≧4.6) with high water activity (>0.97) was prepared to test efficacy of methoxycinnamate either in the non-complex form or as the alpha (α) or beta (β) cyclodextrin-included (complex) form. The base composition of the model beverage per liter is:
A model high acid beverage system (pH <4.6) of 10% juice content was prepared to test efficacy of trans, trans 2,4 decadienal either in the non-complex form or as the alpha (α) or beta (β) cyclodextrin-included (complex) form. The base composition of the model beverage per liter is:
A model low acid beverage system (pH ≧4.6) with high water activity (>0.97) was prepared to test efficacy of trans, trans 2,4 decadienal either in the non-complex form or as the alpha (α) or beta (β) cyclodextrin-included (complex) form. The base composition of the model beverage per liter is: […]

[2] = system: Saccharomyces cerevisiae, Zygosaccharomyces balii and Zygosaccharomyces bisporus; assay: Inhibition of growth of 3 spoilage yeast in model beverage, 16 weeks incubation; assay type: cell-based; details: for amount in complex required to inhibit growth of 3 different spoilage yeast: in complex with alpha or beta cyclodextrin
Description: as §1
(§2) The base composition of the model beverage per liter is: […]
as §2
A model high acid beverage system (pH <4.6) of 10% juice content was prepared to test efficacy of methoxycinnamate either in the non-complex form or as the alpha (α) or beta (β) cyclodextrin-included (complex) form. The base composition of the model beverage per liter is: […]

[3] = high acid model beverage pH 3.4, 5% grape and 5% apple juice (Example 5)
[4] = low acid model tea beverage pH 5.3 (Examples 4 and 6)
[5] = at limit of solubility, summary of examples
[6] = at solubility limit concentration, low acid model tea beverage pH 5.3 (Examples 4 and 6)
[7] = in complex with α-cyclodextrin, low acid model tea beverage pH 5.3 (Examples 4 and 6)
[8] = in complex with β-cyclodextrin, low acid model tea beverage pH 5.3 (Examples 4 and 6)
[9] = high acid model beverage pH 3.4, 10% grape juice (Example 3)

**Q.** Which MIC (spoilage organisms; 2688 h, read-out: MIC) does the source give for `CCCCCCCCCCO` [1-Decanol] here?
**A.** 24 µg/mL

**Q.** For `CC(=O)OCCC1CCCCC1` [2-Cyclohexylethyl acetate], which MIC (spoilage organisms; 2688 h, read-out: MIC) is on record?
**A.** 102 µg/mL

**Q.** Which MIC (spoilage organisms) does the source give for `O=C(OCc1ccccc1)c1ccc(O)cc1` [Benzyl-4-hydroxbenzoate] here?
**A.** 68 ppm

**Q.** For `O=CC=Cc1ccccc1` [Cinnamaldehyde], which MIC (spoilage organisms; 2688 h, read-out: MIC) is on record?
**A.** 66 µg/mL

**Q.** For `O=C(O)C=Cc1ccccc1` [Cinnamic acid], which MIC (spoilage organisms; 2688 h, read-out: MIC) is on record?
**A.** 300 µg/mL

**Q.** For `O=C(O)CCCC1CCCCC1` [Cyclohexanebutyric acid], which MIC (spoilage organisms; 2688 h, read-out: MIC) is on record?
**A.** 68 µg/mL

**Q.** With `CCCCCCCCCC=O` [Decanal] as the compound, how does the MIC (spoilage organisms; 2688 h, read-out: MIC) read?
**A.** 47 µg/mL

**Q.** Which MIC (spoilage organisms) does the source give for `CCCCCCCCC(=O)OC` [Methyl nonaoate] here?
**A.** 90 ppm

**Q.** With `CCCCCCCCC(=O)O` [Nonanoic acid] as the compound, how does the MIC (spoilage organisms; 2688 h, read-out: MIC) read?
**A.** 63 µg/mL

**Q.** Which MIC (spoilage organisms) does the source give for `CCCCCC1CCC(=O)O1` (stereo not drawn) [Nonanoic lactone] here?
**A.** 63 ppm

**Q.** With `CCCOC(=O)c1ccccc1` [Propyl benzoate] as the compound, how does the MIC (spoilage organisms; 2688 h, read-out: MIC) read?
**A.** 66 µg/mL

**Q.** For `C/C=C/C=C/C(=O)O` [Sorbic acid], which MIC (spoilage organisms; 2688 h, read-out: MIC) is on record?
**A.** 1200 µg/mL

**Q.** Which MIC (spoilage organisms) does the source give for `CCCCC/C=C/C=C/C=O` [Trans, trans, 2,4 decadienal] here?
**A.** 8 ppm

**Q.** And the “solubility in the form of a complex with alpha or beta cyclodextrin” value (shortened to “solubility in the form of a complex”) [1, 3]?
**A.** ≤ 280 µg/mL

**Q.** And the “solubility in the form of a complex” value [1, 4]?
**A.** ≤ 280 µg/mL

**Q.** And the solubility limit [1, 3]?
**A.** 5.4 µg/mL (≈ 35.5 µM)

**Q.** What about the solubility limit [1, 4] of the same compound?
**A.** 5.8 µg/mL (≈ 38.1 µM)

**Q.** What about the “limit of solubility in beverage” value ([1]; summary of examples) of the same compound?
**A.** 57 µg/mL

**Q.** What about the “solubility in the form of a complex” value ([1]; summary of examples) of the same compound?
**A.** ≤ 280 µg/mL

**Q.** And the “effective as a stand alone chemical preservative” value (“effective” for short) [2, 5]?
**A.** not effective

**Q.** What about the “effective” value ([2]; at solubility limit concentration, high acid model beverage pH 3.4, 5% grape and 5% apple juice (Example 5)) of the same compound?
**A.** not effective

**Q.** And the “effective” value [2, 6]?
**A.** did not prove effective

**Q.** What about the “amount in complex required to inhibit growth of 3 different spoilage yeast” value ([2]; summary of examples) of the same compound?
**A.** 57-124 ppm

**Q.** What about the “amount required to inhibit growth of 3 different spoilage yeast” value ([2]; in complex with α-cyclodextrin, high acid model beverage pH 3.4, 5% grape and 5% apple juice (Example 5)) of the same compound?
**A.** 60 mg/L

**Q.** What about the “amount required to inhibit growth of 3 different spoilage yeast” value [2, 7] of the same compound?
**A.** 57 mg/L

**Q.** What about the “amount required to inhibit growth of 3 different spoilage yeast” value ([2]; in complex with β-cyclodextrin, high acid model beverage pH 3.4, 5% grape and 5% apple juice (Example 5)) of the same compound?
**A.** 125 mg/L

**Q.** What about the “amount required to inhibit growth of 3 different spoilage yeast” value [2, 8] of the same compound?
**A.** 123 mg/L

**Q.** With `CCCCCCCC1CCC(=O)O1` (stereo not drawn) [Undecalactone] as the compound, how does the MIC (spoilage organisms) read?
**A.** 28 ppm

**Q.** Which MIC (spoilage organisms; 2688 h, read-out: MIC) does the source give for `CCCCCCCCCCC=O` [Undecanal] here?
**A.** 34 µg/mL

**Q.** Which MIC (spoilage organisms) does the source give for `C/C(C=O)=C\c1ccccc1` [methyl trans cinnamylaldehyde] here?
**A.** 58.4 ppm

**Q.** For `COc1ccccc1C=CC=O` [o-methoxycinnamylaldehyde], which MIC (spoilage organisms) is on record?
**A.** 58 ppm

**Q.** With `C=C(C)C1CC=C(C=O)CC1` (stereo not drawn) [perillaldehyde] as the compound, how does the MIC (spoilage organisms; 2688 h, read-out: MIC) read?
**A.** 500 µg/mL

**Q.** Which results are given for `CCCOC(=O)c1ccc(O)cc1` [propyl paraben, Propyl paraban]?
**A.** amount in complex required to inhibit growth of 3 different spoilage yeast ([2]; summary of examples): 510-600 ppm; amount required to inhibit growth of 3 different spoilage yeast ([2]; in complex with α-cyclodextrin, high acid model beverage pH 3.4, 10% apple juice (Example 1)): 510 mg/L; amount required to inhibit growth of 3 different spoilage yeast ([2]; in complex with α-cyclodextrin, low acid model beverage pH 5.8 (Example 2)): 510 mg/L; amount required to inhibit growth of 3 different spoilage yeast ([2]; in complex with β-cyclodextrin, high acid model beverage pH 3.4, 10% apple juice (Example 1)): 600 mg/L; amount required to inhibit growth of 3 different spoilage yeast ([2]; in complex with β-cyclodextrin, low acid model beverage pH 5.8 (Example 2)): 650 mg/L

**Q.** With `Cc1ccc(C(C)C)c(O)c1` [thymol] as the compound, how does the MIC (spoilage organisms; 2688 h, read-out: MIC) read?
**A.** 250 µg/mL

**Q.** What does the source list for methoxycinnamate?
**A.** solubility in the form of a complex with alpha or beta cyclodextrin [1, 9]: ≤ 3690 µg/mL; solubility in the form of a complex with alpha or beta cyclodextrin [1, 4]: ≤ 3411 µg/mL; solubility limit [1, 9]: 498 µg/mL; solubility limit [1, 4]: 600 µg/mL; limit of solubility in beverage ([1]; summary of examples): 498 to 600 µg/mL; solubility in the form of a complex with alpha or beta cyclodextrin ([1]; summary of examples): ≤ 3600 µg/mL; effective as a stand alone chemical preservative [2, 5]: not effective; effective as a stand alone chemical preservative ([2]; at solubility limit concentration, high acid model beverage pH 3.4, 10% grape juice (Example 3)): not effective; effective as a stand alone chemical preservative [2, 6]: did not prove effective; amount in complex required to inhibit growth of 3 different spoilage yeast ([2]; summary of examples): 400-807 ppm; amount required to inhibit growth of 3 different spoilage yeast ([2]; in complex with α-cyclodextrin, high acid model beverage pH 3.4, 10% grape juice (Example 3)): 800 mg/L; amount required to inhibit growth of 3 different spoilage yeast [2, 7]: 800 mg/L; amount required to inhibit growth of 3 different spoilage yeast ([2]; in complex with β-cyclodextrin, high acid model beverage pH 3.4, 10% grape juice (Example 3)): 420 mg/L; amount required to inhibit growth of 3 different spoilage yeast [2, 8]: 420 mg/L; MIC ([2]; in complex with β-cyclodextrin, summary of examples): 400 µg/mL; MIC ([2]; non-complex form, summary of examples): > 600 µg/mL
